Molecular target: T1, full-length ATR (Homo sapiens, UniProt Q13535)
T1 construct: Assays were carried out at 25° C. in the presence of 5 nM full-length ATR
Assay: ATR Inhibition Assay (radioactive-phosphate incorporation)
Format: biochemical
Settings: Ki(app); 5 nM full-length ATR, 10 μM [γ-33P]ATP, 800 μM target peptide, 25° C.
Description: Compounds were screened for their ability to inhibit ATR kinase using a radioactive-phosphate incorporation assay. Assays were carried out in a mixture of 50 mM Tris/HCl (pH 7.5), 10 mM MgCl2 and 1 mM DTT. Final substrate concentrations were 10 μM [γ-33P]ATP (3mCi 33P ATP/mmol ATP, Perkin Elmer) and 800 μM target peptide (ASELPASQPQPFSAKKK).
Assays were carried out at 25° C. in the presence of 5 nM full-length ATR. An assay stock buffer solution was prepared containing all of the reagents listed above, with the exception of ATP and the test compound of interest. 13.5 μL of the stock solution was placed in a 96 well plate followed by addition of 2 μL of DMSO stock containing serial dilutions of the test compound (typically starting from a final concentration of 15 μM with 3-fold serial dilutions) in duplicate (final DMSO concentration 7%). The plate was pre-incubated for 10 minutes at 25° C. and the reaction initiated by addition of 15 μL [γ-33P]ATP (final concentration 10 μM).
The reaction was stopped after […] by the addition of 30 μL 0.1M phosphoric acid containing 2 mM ATP. A multiscreen phosphocellulose filter 96-well plate (Millipore, Cat no. MAPHN0B50) was pretreated with 100 μL 0.2M phosphoric acid prior to the addition of 45 μL of the stopped assay mixture. The plate was washed with 5×200 μL 0.2M phosphoric acid. After drying, 100 μL Optiphase ‘SuperMix’ liquid scintillation cocktail (Perkin Elmer) was added to the well prior to scintillation counting (1450 Microbeta Liquid Scintillation Counter, Wallac).
After removing mean background values for all of the data points, Ki(app) data were calculated from non-linear regression analysis of the initial rate data using the Prism software package (GraphPad Prism version 3.0cx for Macintosh, GraphPad Software, San Diego Calif., USA).

T1 sequence (Q13535 whole entry): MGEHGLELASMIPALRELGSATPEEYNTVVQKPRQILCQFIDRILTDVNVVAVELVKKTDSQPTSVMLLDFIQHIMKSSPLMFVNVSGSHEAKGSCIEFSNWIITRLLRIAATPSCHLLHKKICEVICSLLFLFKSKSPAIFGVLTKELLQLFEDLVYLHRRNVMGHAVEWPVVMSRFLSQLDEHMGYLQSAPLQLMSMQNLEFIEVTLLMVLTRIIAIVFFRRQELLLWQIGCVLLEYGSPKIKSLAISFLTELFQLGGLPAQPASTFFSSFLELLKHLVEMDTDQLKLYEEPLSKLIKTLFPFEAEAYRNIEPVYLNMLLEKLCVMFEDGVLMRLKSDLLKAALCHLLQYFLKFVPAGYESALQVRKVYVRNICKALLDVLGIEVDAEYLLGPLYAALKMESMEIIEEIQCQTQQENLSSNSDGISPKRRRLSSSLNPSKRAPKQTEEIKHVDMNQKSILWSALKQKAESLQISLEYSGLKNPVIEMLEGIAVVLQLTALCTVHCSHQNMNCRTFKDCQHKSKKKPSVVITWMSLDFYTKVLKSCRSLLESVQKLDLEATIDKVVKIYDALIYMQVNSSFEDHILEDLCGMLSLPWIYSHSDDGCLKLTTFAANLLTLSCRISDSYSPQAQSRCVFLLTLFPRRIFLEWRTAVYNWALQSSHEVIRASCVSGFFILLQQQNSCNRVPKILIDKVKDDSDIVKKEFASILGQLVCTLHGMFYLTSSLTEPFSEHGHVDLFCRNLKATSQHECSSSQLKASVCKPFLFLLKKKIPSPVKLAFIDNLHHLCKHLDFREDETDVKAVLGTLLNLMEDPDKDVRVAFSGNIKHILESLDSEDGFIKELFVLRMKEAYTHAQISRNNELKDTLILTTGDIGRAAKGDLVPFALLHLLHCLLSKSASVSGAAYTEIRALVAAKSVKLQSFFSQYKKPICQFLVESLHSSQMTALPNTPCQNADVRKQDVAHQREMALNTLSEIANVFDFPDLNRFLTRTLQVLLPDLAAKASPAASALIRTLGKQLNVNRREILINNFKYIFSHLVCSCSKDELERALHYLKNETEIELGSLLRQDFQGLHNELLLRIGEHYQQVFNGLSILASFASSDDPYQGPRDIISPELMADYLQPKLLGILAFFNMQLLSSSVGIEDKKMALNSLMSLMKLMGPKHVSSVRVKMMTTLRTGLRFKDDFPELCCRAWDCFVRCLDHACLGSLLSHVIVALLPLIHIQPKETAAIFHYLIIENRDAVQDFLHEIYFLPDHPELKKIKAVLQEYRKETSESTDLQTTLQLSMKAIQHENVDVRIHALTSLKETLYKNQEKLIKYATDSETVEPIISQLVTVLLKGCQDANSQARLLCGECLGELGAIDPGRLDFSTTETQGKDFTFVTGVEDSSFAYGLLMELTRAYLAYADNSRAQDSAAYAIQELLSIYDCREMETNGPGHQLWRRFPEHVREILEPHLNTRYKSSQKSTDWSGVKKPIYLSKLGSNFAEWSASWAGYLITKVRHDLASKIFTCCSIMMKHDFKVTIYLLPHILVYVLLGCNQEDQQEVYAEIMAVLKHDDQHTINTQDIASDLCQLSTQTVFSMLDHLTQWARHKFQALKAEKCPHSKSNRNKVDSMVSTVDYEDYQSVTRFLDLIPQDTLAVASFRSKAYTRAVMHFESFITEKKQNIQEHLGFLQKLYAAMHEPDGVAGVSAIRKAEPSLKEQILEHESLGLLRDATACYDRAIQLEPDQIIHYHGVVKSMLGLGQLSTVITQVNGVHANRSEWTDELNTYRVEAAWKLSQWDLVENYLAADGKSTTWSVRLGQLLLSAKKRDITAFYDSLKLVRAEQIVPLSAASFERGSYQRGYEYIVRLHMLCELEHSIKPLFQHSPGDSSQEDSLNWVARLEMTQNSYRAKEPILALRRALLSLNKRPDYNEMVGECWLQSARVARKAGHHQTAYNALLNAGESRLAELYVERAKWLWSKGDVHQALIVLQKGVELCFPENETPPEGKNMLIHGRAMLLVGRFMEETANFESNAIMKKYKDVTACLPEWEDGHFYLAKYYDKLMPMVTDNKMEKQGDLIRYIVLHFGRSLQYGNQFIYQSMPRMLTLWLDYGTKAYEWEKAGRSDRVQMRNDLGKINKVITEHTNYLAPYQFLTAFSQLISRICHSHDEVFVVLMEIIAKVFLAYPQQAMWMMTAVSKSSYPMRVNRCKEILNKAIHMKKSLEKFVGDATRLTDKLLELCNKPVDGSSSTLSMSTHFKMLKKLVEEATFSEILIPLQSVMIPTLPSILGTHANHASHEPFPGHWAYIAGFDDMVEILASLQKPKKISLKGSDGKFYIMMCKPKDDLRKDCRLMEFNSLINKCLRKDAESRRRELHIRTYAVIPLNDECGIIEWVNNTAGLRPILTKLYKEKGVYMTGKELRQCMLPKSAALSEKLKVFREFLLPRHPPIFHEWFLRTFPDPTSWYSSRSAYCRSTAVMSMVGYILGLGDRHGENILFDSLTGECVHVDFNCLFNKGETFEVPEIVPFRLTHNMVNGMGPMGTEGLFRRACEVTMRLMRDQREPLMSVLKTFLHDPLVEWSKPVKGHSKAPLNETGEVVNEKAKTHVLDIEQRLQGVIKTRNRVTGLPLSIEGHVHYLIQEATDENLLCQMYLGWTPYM

| Compound | Ki [nM] |
| --- | --- |
| CC(C)S(=O)(=O)c1ccc(-c2cnc3[nH]cc(NC(=O)C4CCOC4)c3n2)cc1 (stereo not shown) [Compound I-36, N-[2-(4-isopropylsulfonylphenyl)-5H-pyrrolo[2,3-b]pyrazin-7-yl]tetrahydrofuran-3-carboxamide] | 100 to 500 |
| CC(C)S(=O)(=O)c1ccc(-c2cnc3[nH]cc(NC(=O)Cc4nnn[nH]4)c3n2)cc1 [Compound I-38, N-[2-(4-isopropylsulfonylphenyl)-5H-pyrrolo[2,3-b]pyrazin-7-yl]-2-(1H-tetrazol-5-yl)acetamide] | 10 to 100 |
| CC(C)S(=O)(=O)c1ccc(-c2cnc3[nH]cc(NC(=O)COc4ccccc4)c3n2)cc1 [Compound I-39, N-[2-(4-isopropylsulfonylphenyl)-5H-pyrrolo[2,3-b]pyrazin-7-yl]-2-phenoxy-acetamide] | 100 to 500 |
| CC(C)S(=O)(=O)c1ccc(-c2cnc3[nH]cc(NC(=O)c4ccccn4)c3n2)cc1 [Compound I-40, N-[2-(4-isopropylsulfonylphenyl)-5H-pyrrolo[2,3-b]pyrazin-7-yl]pyridine-2-carboxamide] | 10 to 100 |
| CC(C)S(=O)(=O)c1ccc(-c2cnc3[nH]cc(NC(=O)c4ccc(N5CCC[C@H](N)C5)cc4)c3n2)cc1 [Compound I-42, 4-[(3S)-3-amino-1-piperidyl]-N-[2-(4-isopropylsulfonylphenyl)-5H-pyrrolo[2,3-b]pyrazin-7-yl]benzamide] | 10 to 100 |
| CC(C)S(=O)(=O)c1ccc(-c2cnc3[nH]cc(NC(=O)Nc4ccccc4)c3n2)cc1 [Compound I-43, 1-[2-(4-isopropylsulfonylphenyl)-5H-pyrrolo[2,3-b]pyrazin-7-yl]-3-phenyl-urea] | 10 to 100 |

Other lines, results leading:

| Ki [nM] | Compound |
| --- | --- |
| 10 to 100 | CC(C)S(=O)(=O)c1ccc(-c2cnc3[nH]cc(NC(=O)c4cncs4)c3n2)cc1 [Compound I-34, N-[2-(4-isopropylsulfonylphenyl)-5H-pyrrolo[2,3-b]pyrazin-7-yl]thiazole-5-carboxamide] |
| 10 to 100 | CC(C)S(=O)(=O)c1ccc(-c2cnc3[nH]cc(NC(=O)C4CCNCC4)c3n2)cc1 [Compound I-35, N-[2-(4-isopropylsulfonylphenyl)-5H-pyrrolo[2,3-b]pyrazin-7-yl]piperidine-4-carboxamide] |
| 10 to 100 | CC(C)S(=O)(=O)c1ccc(-c2cnc3[nH]cc(NC(=O)CC#N)c3n2)cc1 [Compound I-37, 2-cyano-N-[2-(4-isopropylsulfonylphenyl)-5H-pyrrolo[2,3-b]pyrazin-7-yl]acetamide] |
| ≤ 10 | CC(C)S(=O)(=O)c1ccc(-c2cnc3[nH]cc(NC(=O)c4ccc(N5CC[C@@H](N)C5)cc4)c3n2)cc1 [Compound I-41, 4-[(3R)-3-aminopyrrolidin-1-yl]-N-[2-(4-isopropylsulfonylphenyl)-5H-pyrrolo[2,3-b]pyrazin-7-yl]benzamide] |
